# Values joined by “and” are separate entries in the source; they are usually repeats but may differ in a detail not shown here. Equal entries are not always repeated. Where two headings read alike, the source gives them in different places.
# Key:
# Assay type in all cases: cell-based
# [1] = target: T1, protein kinases (human kinome) (Homo sapiens, UniProt O14965)
# T1 sequence (O14965 1-403): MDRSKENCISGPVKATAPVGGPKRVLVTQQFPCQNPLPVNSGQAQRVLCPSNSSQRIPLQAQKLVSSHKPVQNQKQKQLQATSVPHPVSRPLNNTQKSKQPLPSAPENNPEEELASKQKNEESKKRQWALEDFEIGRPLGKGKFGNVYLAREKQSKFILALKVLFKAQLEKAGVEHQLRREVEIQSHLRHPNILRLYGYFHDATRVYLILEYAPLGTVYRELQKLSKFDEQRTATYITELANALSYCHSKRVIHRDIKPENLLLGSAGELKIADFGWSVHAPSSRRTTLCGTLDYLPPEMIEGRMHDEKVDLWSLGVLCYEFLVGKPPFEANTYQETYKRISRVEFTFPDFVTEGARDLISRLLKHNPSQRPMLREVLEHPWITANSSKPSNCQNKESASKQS
# [2] = target: T2, protein kinases (human kinome) (Homo sapiens, UniProt O75385); settings: for logFC ULK1: ULK1 O75385
# T2 sequence (O75385 1-1050): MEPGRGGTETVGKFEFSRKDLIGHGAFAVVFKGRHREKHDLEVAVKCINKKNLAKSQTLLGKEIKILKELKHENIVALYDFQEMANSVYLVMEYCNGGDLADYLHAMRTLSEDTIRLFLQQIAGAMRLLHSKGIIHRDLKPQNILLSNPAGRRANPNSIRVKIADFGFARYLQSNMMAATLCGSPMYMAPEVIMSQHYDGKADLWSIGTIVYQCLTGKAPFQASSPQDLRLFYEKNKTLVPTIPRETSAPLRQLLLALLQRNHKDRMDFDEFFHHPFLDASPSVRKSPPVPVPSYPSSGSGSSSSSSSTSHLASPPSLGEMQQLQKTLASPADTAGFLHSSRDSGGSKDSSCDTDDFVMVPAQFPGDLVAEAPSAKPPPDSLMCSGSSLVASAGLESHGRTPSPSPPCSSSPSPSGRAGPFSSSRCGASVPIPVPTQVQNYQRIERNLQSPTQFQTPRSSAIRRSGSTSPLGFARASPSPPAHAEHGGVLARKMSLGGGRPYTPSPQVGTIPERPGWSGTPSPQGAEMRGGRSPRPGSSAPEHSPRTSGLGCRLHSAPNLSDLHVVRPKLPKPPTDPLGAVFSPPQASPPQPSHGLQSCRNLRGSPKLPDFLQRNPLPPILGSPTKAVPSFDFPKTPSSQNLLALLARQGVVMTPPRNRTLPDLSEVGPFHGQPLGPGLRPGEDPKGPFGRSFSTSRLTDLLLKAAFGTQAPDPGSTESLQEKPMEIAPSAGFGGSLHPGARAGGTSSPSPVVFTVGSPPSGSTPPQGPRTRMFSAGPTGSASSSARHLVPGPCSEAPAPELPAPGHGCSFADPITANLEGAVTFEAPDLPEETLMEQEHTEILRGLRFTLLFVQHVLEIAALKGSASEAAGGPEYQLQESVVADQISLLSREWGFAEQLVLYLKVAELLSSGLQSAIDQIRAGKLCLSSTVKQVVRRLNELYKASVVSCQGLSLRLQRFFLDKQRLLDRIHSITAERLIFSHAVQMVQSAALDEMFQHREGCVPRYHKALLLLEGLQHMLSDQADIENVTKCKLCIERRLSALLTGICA
# [3] = target: protein kinases (human kinome) (Homo sapiens, UniProt P11802)
# [4] = target: protein kinases (human kinome) (Homo sapiens, UniProt P16591); settings: for logFC of FER (P16591-1): down; for logFC of FER: FER P16591-1
# [5] = target: protein kinases (human kinome) (Homo sapiens, UniProt P30291); settings: for logFC of WEE1: WEE1 P30291-1
# [6] = target: protein kinases (human kinome) (Homo sapiens, UniProt Q2M2I8)
# [7] = test system: protein kinases (human kinome)
# [8] = AURKB Q96GD4-5, experiment wp108
# [9] = AURKB Q96GD4-5, experiment wp131
# Sequence of protein kinases (human kinome) (Homo sapiens, UniProt P11802) (P11802 whole entry): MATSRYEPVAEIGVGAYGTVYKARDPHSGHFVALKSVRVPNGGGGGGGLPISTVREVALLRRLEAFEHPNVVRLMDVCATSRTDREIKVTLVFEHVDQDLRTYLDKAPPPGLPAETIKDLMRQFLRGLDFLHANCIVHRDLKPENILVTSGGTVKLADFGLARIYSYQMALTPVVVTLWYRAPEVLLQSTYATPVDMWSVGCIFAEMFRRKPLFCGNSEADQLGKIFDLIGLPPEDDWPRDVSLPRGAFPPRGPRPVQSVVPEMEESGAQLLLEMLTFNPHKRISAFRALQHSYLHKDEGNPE
# Sequence of protein kinases (human kinome) (Homo sapiens, UniProt P30291) (P30291 whole entry): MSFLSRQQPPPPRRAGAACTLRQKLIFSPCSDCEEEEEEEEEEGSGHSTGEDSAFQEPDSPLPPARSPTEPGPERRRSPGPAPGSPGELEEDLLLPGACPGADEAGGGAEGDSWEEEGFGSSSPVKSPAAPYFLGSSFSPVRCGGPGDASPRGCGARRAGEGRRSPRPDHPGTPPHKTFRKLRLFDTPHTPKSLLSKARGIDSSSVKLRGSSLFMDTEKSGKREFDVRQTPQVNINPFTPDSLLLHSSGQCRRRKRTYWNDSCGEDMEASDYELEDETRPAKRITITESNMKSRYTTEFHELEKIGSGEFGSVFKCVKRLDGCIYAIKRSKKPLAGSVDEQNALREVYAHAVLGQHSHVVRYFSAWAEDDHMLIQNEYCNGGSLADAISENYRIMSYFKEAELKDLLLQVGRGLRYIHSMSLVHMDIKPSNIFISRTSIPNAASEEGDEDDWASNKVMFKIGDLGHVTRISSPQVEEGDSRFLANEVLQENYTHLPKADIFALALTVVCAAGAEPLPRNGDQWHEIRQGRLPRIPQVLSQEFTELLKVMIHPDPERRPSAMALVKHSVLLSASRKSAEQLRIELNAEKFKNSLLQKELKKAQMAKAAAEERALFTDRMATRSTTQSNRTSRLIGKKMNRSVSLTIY
# Sequence of protein kinases (human kinome) (Homo sapiens, UniProt Q2M2I8) (Q2M2I8 whole entry): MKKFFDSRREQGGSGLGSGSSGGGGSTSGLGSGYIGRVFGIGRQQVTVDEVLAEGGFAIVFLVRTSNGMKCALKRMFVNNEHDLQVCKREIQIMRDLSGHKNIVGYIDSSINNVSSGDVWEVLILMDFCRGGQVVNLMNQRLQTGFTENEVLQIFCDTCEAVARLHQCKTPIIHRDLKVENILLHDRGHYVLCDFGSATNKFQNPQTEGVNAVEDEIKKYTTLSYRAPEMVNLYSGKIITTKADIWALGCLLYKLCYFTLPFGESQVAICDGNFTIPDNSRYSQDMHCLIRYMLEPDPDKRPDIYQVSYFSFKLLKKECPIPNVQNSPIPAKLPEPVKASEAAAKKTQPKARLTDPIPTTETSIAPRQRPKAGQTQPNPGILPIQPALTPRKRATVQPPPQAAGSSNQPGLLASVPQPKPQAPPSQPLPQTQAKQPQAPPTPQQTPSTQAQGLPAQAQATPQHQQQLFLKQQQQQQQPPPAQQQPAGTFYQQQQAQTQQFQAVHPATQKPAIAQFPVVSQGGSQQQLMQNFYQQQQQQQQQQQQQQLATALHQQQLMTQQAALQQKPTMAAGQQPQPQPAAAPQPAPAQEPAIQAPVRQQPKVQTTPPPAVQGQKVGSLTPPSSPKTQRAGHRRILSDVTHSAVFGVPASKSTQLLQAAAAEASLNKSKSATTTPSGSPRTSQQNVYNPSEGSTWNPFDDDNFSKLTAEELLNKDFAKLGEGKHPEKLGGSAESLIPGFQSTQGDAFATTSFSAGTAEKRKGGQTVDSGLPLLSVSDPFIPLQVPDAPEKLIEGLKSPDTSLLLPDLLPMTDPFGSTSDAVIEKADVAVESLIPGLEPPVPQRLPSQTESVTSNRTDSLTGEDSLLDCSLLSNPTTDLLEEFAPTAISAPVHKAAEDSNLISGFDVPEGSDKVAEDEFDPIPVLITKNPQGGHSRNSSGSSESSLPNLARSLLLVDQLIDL
# Sequence of protein kinases (human kinome) (Homo sapiens, UniProt P16591) (P16591 whole entry): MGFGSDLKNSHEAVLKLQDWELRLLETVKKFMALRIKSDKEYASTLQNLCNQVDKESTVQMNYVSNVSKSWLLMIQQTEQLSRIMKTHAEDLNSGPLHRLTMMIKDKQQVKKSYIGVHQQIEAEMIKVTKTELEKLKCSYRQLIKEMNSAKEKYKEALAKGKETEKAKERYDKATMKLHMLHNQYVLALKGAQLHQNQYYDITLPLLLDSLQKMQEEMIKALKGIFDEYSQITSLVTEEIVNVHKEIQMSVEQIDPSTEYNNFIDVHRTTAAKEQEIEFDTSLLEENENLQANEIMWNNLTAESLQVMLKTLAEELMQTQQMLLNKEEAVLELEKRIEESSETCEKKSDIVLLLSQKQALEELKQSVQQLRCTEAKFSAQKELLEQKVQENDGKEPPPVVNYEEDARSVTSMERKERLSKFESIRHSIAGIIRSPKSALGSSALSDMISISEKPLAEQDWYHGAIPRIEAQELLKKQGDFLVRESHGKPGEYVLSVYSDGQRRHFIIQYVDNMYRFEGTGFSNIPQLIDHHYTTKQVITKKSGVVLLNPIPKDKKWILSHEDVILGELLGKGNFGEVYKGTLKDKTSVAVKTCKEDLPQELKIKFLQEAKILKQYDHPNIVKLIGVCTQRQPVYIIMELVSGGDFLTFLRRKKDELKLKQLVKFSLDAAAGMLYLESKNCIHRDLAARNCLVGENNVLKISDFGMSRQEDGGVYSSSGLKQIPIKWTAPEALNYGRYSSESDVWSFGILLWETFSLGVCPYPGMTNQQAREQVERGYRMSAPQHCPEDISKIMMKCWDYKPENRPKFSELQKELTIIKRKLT
smiles,measurement,setting,value
Cc1ncsc1-c1ccc([C@H](C)NC(=O)[C@@H]2C[C@@H](O)CN2C(=O)[C@@H](NC(=O)CCOCCOCCN2CCN(c3ccc(Nc4ncc(Cl)c(Nc5ccccc5S(=O)(=O)C(C)C)n4)cc3)CC2)C(C)(C)C)cc1 [FMF.06.098.1],logFC AURKA (O14965),[1]; experiment wp114,−0.4151
same,logFC AURKA (O14965),[1]; experiment wp131,−0.3471
same,logFC,"[2]; ULK1 (O75385) protein abundance, degrader vs DMSO, down",−0.688 and −0.9629
same,logFC ULK1,[2]; experiment wp108,−0.688
same,logFC ULK1,[2]; experiment wp131,−0.9629
same,logFC CDK4 (P11802),[3]; Experiment wp108,−0.8731
same,logFC CDK4 (P11802),[3]; experiment wp114,−0.3781
same,logFC CDK4 (P11802),[3]; experiment wp131,−1.029
same,logFC of FER (P16591-1),[4]; Experiment wp108,−0.3577
same,logFC of FER (P16591-1),[4]; Experiment wp131,−0.4871
same,logFC of FER,[4]; experiment wp108,−0.3577
same,logFC of FER,[4]; experiment wp131,−0.4871
same,logFC WEE1 (P30291-1),[5]; Experiment wp108,−1.98
same,logFC of WEE1,[5]; experiment wp108,−1.98
same,logFC of WEE1,[5]; experiment wp131,−2.183
same,logFC WEE1 (P30291-1),[5]; experiment wp131,−2.183
same,logFC AAK1,"[6]; AAK1 (Q2M218-1), experiment wp108, down",−0.4346
same,logFC AAK1,"[6]; AAK1 (Q2M218-1), experiment wp114, down",−0.485
same,logFC AAK1,"[6]; AAK1 (Q2M218-1), experiment wp131, down",−0.7293
same,logFC AAK1,"[6]; AAK1, accession Q2M218-1, experiment wp108, direction of change down",−0.4346
same,logFC AAK1,"[6]; AAK1, accession Q2M218-1, experiment wp114, direction of change down",−0.485
same,logFC AAK1,"[6]; AAK1, accession Q2M218-1, experiment wp131, direction of change down",−0.7293
same,logFC,[7]; [8],−0.5246
same,logFC AURKB,[7]; [8],−0.5246
same,logFC,[7]; [9],−0.6726
same,logFC AURKB,[7]; [9],−0.6726
same,logFC BUB1B,"[7]; Accession O60566-3, experiment wp108, direction down",−0.4426
same,logFC BUB1B,"[7]; Accession O60566-3, experiment wp131, direction down",−0.4232
same,logFC CSNK1D,"[7]; Accession P48730-2, experiment wp108, direction down",−0.3812
same,logFC CSNK1D,"[7]; Accession P48730-2, experiment wp114, direction down",−0.4039
same,logFC BUB1B,"[7]; BUB1B (O60566-3), experiment wp108",−0.4426
same,logFC BUB1B,"[7]; BUB1B (O60566-3), experiment wp131",−0.4232
same,logFC,"[7]; CDK9 (P50750-2) protein abundance, degrader vs DMSO, down",−0.7233 and −0.6791
same,logFC CSNK1D,"[7]; CSNK1D P48730-2, experiment wp108",−0.3812
same,logFC CSNK1D,"[7]; CSNK1D P48730-2, experiment wp114",−0.4039
same,logFC CDK9 (P50750-2),[7]; Experiment wp108,−0.7233
same,logFC PRKAA1 (Q13131-2),"[7]; Experiment wp131, direction down",−0.3695
same,logFC,"[7]; FER (P16591-3), experiment wp114, direction down",−0.3986
same,logFC of FER,"[7]; FER P16591-3, experiment wp114",−0.3986
same,logFC FGFR1 (P11362-21),"[7]; experiment wp108, direction of change down",−0.4121
same,logFC ABL2 (P42684-5),[7]; experiment wp131,−0.6443
same,logFC CDK9 (P50750-2),[7]; experiment wp131,−0.6791
same,logFC PRKAA1 (Q13131-2),[7]; experiment wp131,−0.3695
same,logFC of ABL2 (P42684-5),[7]; experiment wp131,−0.6443
same,logFC FGFR1,"[7]; protein FGFR1 (P11362-21), experiment wp108, down",−0.4121
